According to EP4577243B1, “STABLE LIPID OR LIPIDOID NANOPARTICLE SUSPENSIONS” (Ethris GmbH, priority 2022, dated 2024):

Test: pKa of ionizable lipids (Tables 1 to 3)
Format: physicochemical
Conditions: Table 2

## CCCCCCCC(=O)N(CCCN(C)C)C(CCCCCCCCC(=O)OC(CCCCCC)CCCCCC)CCCCCCCCC(=O)OC(CCCCCC)CCCCCC [II-10]
  pKa: 6.16
